Measurements as given in US11229675B2, “Therapeutic peptides for excitatory neurotoxicity-related injuries” (Biocells (Beijing) Biotech Co., Ltd., priority 2016, dated 2022).
Several values for one entry are separate records, joined by “and”; a condition that tells them apart may be missing. Identical values can stand only once. Where no end group is shown, it is not given here.

Legend:
[1] = test system: MCAO model rats; assay: Cerebral infarction volume (TTC staining) in MCAO model rats; details: rat, in vivo
Experimental: The focal cerebral ischemia-reperfusion model was prepared according to the reversible middle cerebral artery occlusion (MCAO) suture method proposed by Longa with modifications in view of the anatomical structure of the rat brain. The rats were anesthetized by intraperitoneal administration of 10% chloral hydrate at a dose of […]. After anesthetization, a cut was created at the cervical midline, and the common carotid artery (CCA), external carotid artery (ECA) and pterygopalatine artery were exposed. The head portion (0.5 cm) of a monofilament nylon fishing line (0.26 mm) was coated with paraffin and a mark was made at 20 mm. All rats were inserted through the right CCA incision, and the pterygopalatine artery was temporarily clamped to prevent mis-insertion. The length of the occlusion line was about 18-20 mm from the bifurcation of CCA depending on the animal's weight, thereby occluding middle cerebral artery on the right side. The skin was then sewed, and the tail end of the occlusion line was partially fixed to the skin. After a period of ischemia for 2 hours, the occlusion line was carefully pulled out to form a reperfusion. The procedure steps for the sham control were the same as the surgery group, except for insertion of a nylon fishing line. The body temperature was maintained at 37±0.5° C. during the ischemia period and 2 h after reperfusion.
The used animals were male adult SD rats (Vittalia) of SPF grade with body weight of 220-250 g.
No drugs were administered to the normal group and the sham group.
The rats were sacrificed by decapitation after scoring. The brain tissues were quickly removed and placed in a refrigerator at −20° C. After 10 minutes, the tissues were placed in a room temperature environment. The brains were placed in a rat brain section mold. After the olfactory bulb, cerebellum and low brain stem were removed, the brains were coronally cut five times at 2 mm thickness as shown in the profile to obtain six continuous raw coronal slices. Then, the brain sections were quickly placed in a 5 ml solution containing 2% TTC, and incubated at 37° C. for 30 minutes in the dark, during which the brain sections were flipped once every 5 minutes. With the TTC staining, the normal tissue would be rose red, and the infarcted tissue would be unstained and retained white. Each group of brain sections was arranged neatly, and photographed. The photos were processed by an image analysis system software and statistically analyzed. The infarction area of each brain section was calculated, and multiplied by the thickness of each brain section (2 mm). The products of the infarction area of individual brain section multiplied by the thickness were summed to obtain the cerebral infarction volume for each animal. The volumes were expressed as percentages accounting for the cerebral hemisphere to eliminate the effects of cerebral edema.

[2] = test system: rats; assay: Acute toxicity test on rats; assay type: in vivo, rat; details: 200 mg/kg body weight
Experimental: Acute toxicity tests were performed on rats.

[3] = test system: MCAO model rats; assay: HE staining for histological changes in brains of MCAO rats; assay type: in vivo, rat; details: therapeutic and prophylactic administration, 10 mg/kg, 24 h after ischemia
Experimental: The rats in each group were decapitated at 24 h after ischemia, and the resultant brain was coronally sectioned near the optic chiasm with a thickness of about 4 mm. The sections were fixed with 10% formalin solution and dehydrated with alcohol with a concentration gradient from 70% to 100%. The sections were permeabilized twice in xylene, and embedded in paraffin. The paraffin block was carefully trimmed, and immobilized on a paraffin slicing machine, and sliced to sections with a thickness of 4 μm. The paraffin sections were completely unfolded, attached to a clean and dry glass slide, and stored in a refrigerator at 4° C. Conventional HE staining was performed, and the staining results were observed by light microscopy.

CC[C@H](C)[C@H](NC(=O)[C@H](CCC(=O)O)NC(=O)[C@@H](NC(=O)[C@H](CC(=O)O)NC(=O)[C@H](CC(C)C)NC(=O)[C@H](CC(C)C)NC(=O)[C@H](CCCCN)NC(=O)[C@H](CCC(=O)O)NC(=O)[C@H](Cc1ccc(O)cc1)NC(=O)[C@H](CCCNC(=N)N)NC(=O)[C@H](CCCNC(=N)N)NC(=O)[C@H](CCCNC(=N)N)NC(=O)[C@H](CCC(N)=O)NC(=O)[C@H](CCCNC(=N)N)NC(=O)[C@H](CCCNC(=N)N)NC(=O)[C@H](CCCCN)NC(=O)[C@H](CCCCN)NC(=O)[C@H](CCCNC(=N)N)NC(=O)CNC(=O)[C@@H](N)Cc1ccc(O)cc1)[C@@H](C)O)C(=O)O [P5]
Mean of infarction volume percentage [1]: 24.84% and 36.54% and 43.22%
Mean of infarction volume percentage ([1]; 1 mg/kg): 44.23%
Reduction of infarction volume percentage vs model group ([1]; 1 mg/kg): 3.76%
Mean of infarction volume percentage ([1]; 3 mg/kg): 35.66%
Reduction of infarction volume percentage vs model group ([1]; 3 mg/kg): 22.41%
effect on cerebral infarction volume ([1]; 3 mg/kg): desirably reduced the cerebral infarction volume
Mean of infarction volume percentage ([1]; 10 mg/kg): 19.54%
Reduction of infarction volume percentage vs model group ([1]; 10 mg/kg): 57.48%
reduction of cerebral infarction volume ([1]; 10 mg/kg): about 50%
acute toxicity [2]: no lethal effect and other obvious toxic side effects
pathological changes of brain tissue (HE staining) [3]: significantly improved

YGRKKRRQRRRKLSSIESDV [NA-1, reference compound]
Mean of infarction volume percentage [1]: 38.56%

YGRKKRRQRRRYEKLSSIESDV [YE-NA-1, reference compound]
Mean of infarction volume percentage [1]: 33.96%
